Laboratory results taken from patent US8802866B2, “Pyridinylimidazolone derivatives for the inhibition of PI3 kinases” (Merck Patent GmbH, priority 2009, dated 2014).

What was measured:
DNA-PK protein complex = DNA-PK protein complex (Homo sapiens, UniProt P78527); experiment: Biochemical DNA-PK assay (FlashPlate)
Procedure: The kinase assay is carried out in […] microtitre FlashPlates®, coated with streptavidin. […] The reaction is stopped by addition of 50 μl/well of 200 mM EDTA. After incubation for 30 minutes, the liquids are removed at room temperature. Each well is washed three times with 100 μl of 0.9% NaCl solution. Non-specific reaction (blank) is determined using a proprietary kinase inhibitor (10 μM). The radioactivity is measured by means of a Topcount. […] Todd Eary, J. G. Schiro, H. Huang, L. E. Burgess, E. A. Kesicki, and J. Halbrook.

[1] = test system: PI3K-dependent phosphorylation of PKB at Serin 473 in PC3 cells; experiment: Cellular PI3K assay (P-S473-PKB Luminex assay in PC3 cells); assay type: cell-based; conditions: Homo sapiens, PC-3, 0.5 h; PC3 cells, 30 min, serum-free, P-S473-PKB; read-out: IC50 (cell)
Procedure: The cellular assay for determination of the P-S473-PKB level is carried out as a Luminex assay in 96-well format in PC3 cells.
PC3 cells are sown out with 20,000 cells per well in 100 μl medium (45% […]/45% Ham's F12/10% FCS) and incubated on the following day for 30 min with a serial dilution of the test substance (7 concentrations) under serum-free conditions. The cells are subsequently lysed using 90 μl of lysis buffer (20 mM Tris/HCl pH 8.0, 150 mM NaCl, 1% NP40, 10% glycerol, 1% phosphatase inhibitor I, 1% phosphatase inhibitor II, 0.1% protease inhibitor cocktail III, 0.01% benzonase) per well, and the lysates are separated off from insoluble cell constituents by means of centrifugation through a 96-well filter plate (0.65 μm). The lysates are incubated overnight at 4° C. with shaking with Luminex beads to which an anti-total PKB antibody is coupled. The detection is carried out on the following day by addition of a P-S473-PKB antibody and a species-specific PE-labelled secondary antibody. The detection of P-S473-PKB is carried out by measurement in a Luminex100 instrument by determination of 100 events per cavity in a measurement time of 60 sec.

[2] = molecular target: recombinant PI3Kalpha (shortened form of the catalytic subunit) (Homo sapiens, UniProt P42336); experiment: BIACORE PI3K binding assay (SPR); conditions: 25° C.
Procedure: SPR measurements of the binding affinities and binding kinetics on PI3Kalpha surfaces with the aid of Biacore systems. The experiments are carried out on a Biacore S51 “Compound Characterization” or a Biacore T100 instrument utilising the default application “Kinetics/Affinity” Experimental conditions: recombinant PI3Kalpha (shortened form of the catalytic subunit, missing N terminal from about 100 to 150 aa, Mw about 110 kDa, prepared by Proteros Biostructures GmbH) is immobilised on Biacore CM5 chips (25° C., flow rate: 10 μl/min, utilising amine coupling at pH 7.40—Biacore Standard protocol). PI3Kalpha is employed in concentrations between 10 and 25 μg/ml. Depending on the duration of the injection time, immobilisation levels from 1700 to 11000 RU are achieved. The substances to be measured are added in the form of a titration series. The substance concentration is doubled for each subsequent injection. 10 different substance concentrations which cover a 500-fold dilution range are usually injected. […] Kinetic titration experiments are carried out at 25° C. with a flow rate of 30 μl/min, the sample contact time is 180 s, and the dissociation time is 240 s in a running buffer (20 mM HEPES pH7.40, 150 mM NaCl, 5 mM MgCl2, 1 mM DTT, 0.1 mM EDTA, 0.05% Tween 20) comprising 2% of DMSO. Buffer injections (as double references) identical to the sample injections are carried out in each case at the beginning of a continuous series. Solvent correction cycles (eight correction points, 1.4%-2.8% DMSO) are carried out at equal intervals. In order to condition the surface, at least five start-up cycles (buffer injections) are carried out. Data points are collected with a sample rate of 10 Hz. Surface regeneration is carried out after each measurement cycle, apart from after the solvent correction runs. For this purpose, two times 100 mM NaHCO3 pH 8.60 are injected for 30 sec. Data sets are processed and analysed using the Biacore S51 Evaluation software, version 1.2.1, or Biacore T100 Evaluation, version 2.0. Solvent-corrected and double-referenced association and dissociation phase data are adapted to a simple 1:1 interaction model with mass transport limitations.

PI3Kalpha = PI3Kalpha (Homo sapiens, UniProt P42336); experiment: Biochemical PI3Kalpha assay (neomycin SPA, lipid phosphorylation); conditions: human recombinant GST-PI3K
Procedure: (§1) The efficacy of the compounds according to the invention in the inhibition of PI3K-induced lipid phosphorylation can be investigated in the following binding assay. The assay combines scintillation proximity assay (SPA) technology (Amersham) with the ability of neomycin (a polycationic antibiotic) to bind phospholipids with high affinity and specificity. […] The coating of SPA beads with neomycin allows the detection of phosphorylated lipid substrates after incubation with recombinant PI3K and radioactive ATP in the same well by trapping the radioactive phospholipids by the SPA beads owing to their specific binding to neomycin. […] After incubation at room temperature for 120 minutes with gentle stirring, the reaction was stopped by addition of 200 μl of a solution comprising 250 μg of neomycin-coated PVT-SPA beads, ATP 60 mM and EDTA 6.2 mM in PBS. The assay is incubated at room temperature for a further 60 minutes with gentle stirring in order to enable binding of the phospholipids to the neomycin-SPA beads. After precipitation of the neomycin-coated PVT-SPA beads over 5 minutes at 1500×g, radioactive Ptdlns(3)P is quantified by scintillation counting in a Wallac Micro-Beta™ plate counter.

PI3Kbeta = PI3Kbeta (Homo sapiens, UniProt P42338); experiment: Biochemical PI3Kbeta assay (neomycin SPA, lipid phosphorylation); conditions: human recombinant GST-PI3K
Procedure: as §1

Chain of PI3Kalpha (P42336 whole entry): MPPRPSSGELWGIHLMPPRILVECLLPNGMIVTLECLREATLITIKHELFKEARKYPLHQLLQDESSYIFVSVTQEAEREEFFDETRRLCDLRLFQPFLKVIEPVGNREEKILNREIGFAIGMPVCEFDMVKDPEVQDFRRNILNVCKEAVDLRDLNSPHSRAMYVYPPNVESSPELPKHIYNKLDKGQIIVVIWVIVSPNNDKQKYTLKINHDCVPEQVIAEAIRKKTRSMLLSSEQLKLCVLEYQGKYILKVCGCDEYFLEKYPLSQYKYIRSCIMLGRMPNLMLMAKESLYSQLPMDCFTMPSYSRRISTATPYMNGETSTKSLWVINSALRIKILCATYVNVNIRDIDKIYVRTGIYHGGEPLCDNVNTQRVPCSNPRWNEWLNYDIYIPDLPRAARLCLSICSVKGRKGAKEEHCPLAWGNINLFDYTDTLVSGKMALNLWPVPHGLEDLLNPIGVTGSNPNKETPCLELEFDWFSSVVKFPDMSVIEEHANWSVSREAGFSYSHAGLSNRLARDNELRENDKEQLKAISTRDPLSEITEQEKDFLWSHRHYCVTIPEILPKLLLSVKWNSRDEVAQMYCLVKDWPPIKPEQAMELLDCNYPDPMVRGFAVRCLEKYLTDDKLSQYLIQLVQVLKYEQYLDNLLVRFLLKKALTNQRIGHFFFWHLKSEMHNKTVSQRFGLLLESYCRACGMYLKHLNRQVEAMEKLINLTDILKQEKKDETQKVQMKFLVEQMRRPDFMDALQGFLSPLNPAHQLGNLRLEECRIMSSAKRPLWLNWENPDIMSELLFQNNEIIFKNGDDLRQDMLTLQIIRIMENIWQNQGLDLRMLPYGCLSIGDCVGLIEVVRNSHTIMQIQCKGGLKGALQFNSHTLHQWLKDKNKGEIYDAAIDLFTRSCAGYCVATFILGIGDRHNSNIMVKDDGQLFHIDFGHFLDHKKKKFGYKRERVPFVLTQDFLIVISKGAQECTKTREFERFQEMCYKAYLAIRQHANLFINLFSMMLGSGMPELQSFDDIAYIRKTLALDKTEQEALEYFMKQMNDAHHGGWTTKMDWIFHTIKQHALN
Chain of PI3Kalpha (P27986 whole entry partner): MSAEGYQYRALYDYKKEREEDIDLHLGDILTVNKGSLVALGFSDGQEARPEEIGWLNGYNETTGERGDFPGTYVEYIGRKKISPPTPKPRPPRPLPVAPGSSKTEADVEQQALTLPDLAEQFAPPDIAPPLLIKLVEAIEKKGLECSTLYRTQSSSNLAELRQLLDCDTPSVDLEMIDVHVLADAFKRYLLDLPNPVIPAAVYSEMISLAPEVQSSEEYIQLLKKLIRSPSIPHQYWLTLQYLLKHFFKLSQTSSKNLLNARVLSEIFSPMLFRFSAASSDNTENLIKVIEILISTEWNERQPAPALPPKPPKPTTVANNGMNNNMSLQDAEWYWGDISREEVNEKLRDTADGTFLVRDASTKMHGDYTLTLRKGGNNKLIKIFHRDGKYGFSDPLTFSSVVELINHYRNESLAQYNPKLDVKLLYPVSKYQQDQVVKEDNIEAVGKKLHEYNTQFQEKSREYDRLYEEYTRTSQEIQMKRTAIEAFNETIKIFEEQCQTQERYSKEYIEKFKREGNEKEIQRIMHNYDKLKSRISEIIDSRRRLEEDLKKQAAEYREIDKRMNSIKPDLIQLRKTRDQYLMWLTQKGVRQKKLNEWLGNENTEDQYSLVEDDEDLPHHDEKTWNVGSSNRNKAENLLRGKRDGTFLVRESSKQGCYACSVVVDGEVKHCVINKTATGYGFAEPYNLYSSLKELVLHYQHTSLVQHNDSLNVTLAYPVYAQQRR
Chain of PI3Kbeta (P42338 whole entry): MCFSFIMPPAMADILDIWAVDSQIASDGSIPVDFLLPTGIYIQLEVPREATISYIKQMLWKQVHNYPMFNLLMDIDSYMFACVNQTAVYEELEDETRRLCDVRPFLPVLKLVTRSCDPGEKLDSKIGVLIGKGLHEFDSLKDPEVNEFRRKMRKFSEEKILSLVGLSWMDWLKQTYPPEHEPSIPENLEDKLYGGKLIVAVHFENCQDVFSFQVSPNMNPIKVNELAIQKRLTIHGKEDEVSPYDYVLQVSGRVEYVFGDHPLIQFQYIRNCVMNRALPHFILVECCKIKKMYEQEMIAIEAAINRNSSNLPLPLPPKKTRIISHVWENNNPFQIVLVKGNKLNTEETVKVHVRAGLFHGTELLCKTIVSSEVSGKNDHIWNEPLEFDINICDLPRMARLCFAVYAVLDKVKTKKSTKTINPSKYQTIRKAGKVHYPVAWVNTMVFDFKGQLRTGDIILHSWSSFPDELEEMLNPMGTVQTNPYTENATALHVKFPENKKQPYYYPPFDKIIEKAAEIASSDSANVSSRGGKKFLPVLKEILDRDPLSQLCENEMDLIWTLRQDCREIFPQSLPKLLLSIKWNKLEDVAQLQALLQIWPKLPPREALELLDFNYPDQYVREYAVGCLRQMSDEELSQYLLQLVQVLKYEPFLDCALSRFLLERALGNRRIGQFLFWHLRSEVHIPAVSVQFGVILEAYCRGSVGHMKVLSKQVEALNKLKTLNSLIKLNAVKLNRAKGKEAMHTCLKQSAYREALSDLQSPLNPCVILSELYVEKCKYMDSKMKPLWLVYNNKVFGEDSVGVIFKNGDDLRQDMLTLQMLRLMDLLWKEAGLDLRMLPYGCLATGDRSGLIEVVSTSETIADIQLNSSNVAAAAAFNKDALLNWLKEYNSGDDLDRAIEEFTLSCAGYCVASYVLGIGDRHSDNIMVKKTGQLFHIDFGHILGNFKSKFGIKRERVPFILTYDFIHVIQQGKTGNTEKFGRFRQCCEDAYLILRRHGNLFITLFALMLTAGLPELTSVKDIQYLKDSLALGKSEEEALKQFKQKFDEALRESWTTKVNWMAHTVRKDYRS
Chain of PI3Kbeta (P27986 whole entry partner): as the sequence (P27986 whole entry partner) above
Chain of recombinant PI3Kalpha (shortened form of the catalytic subunit) (P42336 151-1068 limits assumed): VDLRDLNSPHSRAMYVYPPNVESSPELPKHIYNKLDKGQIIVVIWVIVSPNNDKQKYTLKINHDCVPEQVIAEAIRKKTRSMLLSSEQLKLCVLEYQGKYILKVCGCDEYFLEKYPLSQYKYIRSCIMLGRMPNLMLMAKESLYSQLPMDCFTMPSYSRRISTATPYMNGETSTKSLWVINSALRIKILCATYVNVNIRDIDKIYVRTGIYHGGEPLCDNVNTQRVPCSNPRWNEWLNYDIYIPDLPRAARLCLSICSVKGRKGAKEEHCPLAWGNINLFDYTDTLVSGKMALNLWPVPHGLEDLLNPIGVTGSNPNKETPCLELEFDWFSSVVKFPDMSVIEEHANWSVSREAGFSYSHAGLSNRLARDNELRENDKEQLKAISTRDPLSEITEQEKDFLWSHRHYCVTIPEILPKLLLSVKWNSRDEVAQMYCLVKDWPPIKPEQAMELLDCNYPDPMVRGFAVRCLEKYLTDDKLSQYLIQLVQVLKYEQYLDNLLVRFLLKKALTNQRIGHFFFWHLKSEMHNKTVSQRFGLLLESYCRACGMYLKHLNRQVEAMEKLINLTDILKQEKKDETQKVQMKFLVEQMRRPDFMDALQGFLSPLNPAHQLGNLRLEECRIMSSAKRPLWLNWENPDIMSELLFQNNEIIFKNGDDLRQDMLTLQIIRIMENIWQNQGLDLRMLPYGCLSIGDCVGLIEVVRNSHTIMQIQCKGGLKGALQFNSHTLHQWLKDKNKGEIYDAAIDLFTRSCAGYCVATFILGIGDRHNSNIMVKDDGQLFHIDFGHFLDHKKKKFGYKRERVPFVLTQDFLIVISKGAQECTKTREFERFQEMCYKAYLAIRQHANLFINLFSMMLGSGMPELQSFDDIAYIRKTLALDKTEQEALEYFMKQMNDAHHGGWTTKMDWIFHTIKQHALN

Row | SMILES | IC50 (DNA-PK protein complex) [nM] | IC50 [1] [nM] | Kd [2] [nM] | IC50 (PI3Kalpha) [nM] | IC50 (PI3Kbeta) [nM]
1 | Cn1cc(-c2cncc(-c3cnc4ccccc4c3)c2)n(-c2ccc(C(C)(C)C#N)cc2)c1=O [Example A2, 2-Methyl-2-{4-[3-methyl-2-oxo-5-(5-quinolin-3-ylpyridin-3-yl)-2,3-dihydroimidazol-1-yl]phenyl}propionitrile] | 100 to 10000 | – | – | – | –
2 | COc1ccc(-c2ccnc(-c3c[nH]c(=O)n3-c3ccc(N4CCNCC4)c(C(F)(F)F)c3)c2)cn1 [Example A4, 5-(6-Methoxy-[3,4′]bipyridinyl-2′-yl)-1-(4-piperazin-1-yl-3-trifluoromethylphenyl)-1,3-dihydroimidazol-2-one] | 100 to 10000 | 100 to 10000 | 100 to 10000 | 100 to 10000 | 100 to 10000
3 | Cn1cc(-c2cc(-c3cnc4c(ccn4C)c3)ccn2)n(-c2ccc(C(C)(C)C#N)cc2)c1=O [Example A54, 2-Methyl-2-(4-{3-methyl-5-[4-(1-methyl-1H-pyrrolo[2,3-b]pyridin-5-yl)pyridin-2-yl]-2-oxo-2,3-dihydroimidazol-1-yl}phenyl)propionitrile] | 0.1 to 100 | 100 to 10000 | – | 100 to 10000 | 100 to 10000
4 | CC(=O)Nc1ncc(-c2ccnc(-c3cn(C)c(=O)n3-c3cccc(C#N)c3)c2)cc1C(F)(F)F [Example A68, N-{2′-[3-(3-Cyanophenyl)-1-methyl-2-oxo-2,3-dihydro-1H-imidazol-4-yl]-5-trifluoromethyl-[3,4′]bipyridinyl-6-yl}acetamide] | 100 to 10000 | 100 to 10000 | – | 100 to 10000 | > 10000
5 | Cn1cc(-c2cc(-c3cnc(N)c(C#N)n3)ccn2)n(-c2ccc(C(C)(C)C#N)cc2)c1=O [Example A70, 3-Amino-6-(2-{3-[4-(cyanodimethylmethyl)phenyl]-1-methyl-2-oxo-2,3-dihydro-1H-imidazol-4-yl}pyridin-4-yl)pyrazine-2-carbonitrile] | 100 to 10000 | 100 to 10000 | – | 100 to 10000 | 100 to 10000
6 | Cn1cc(-c2cc(-c3cnc4[nH]ccc4n3)ccn2)n(-c2ccc(C(C)(C)C#N)cc2)c1=O [Example A78, 2-Methyl-2-(4-{3-methyl-2-oxo-5-[4-(5H-pyrrolo[2,3-b]pyrazin-2-yl)pyridin-2-yl]-2,3-dihydroimidazol-1-yl}phenyl)propionitrile] | 100 to 10000 | 100 to 10000 | – | 100 to 10000 | 100 to 10000
7 | Cn1cc(-c2cc(-c3cnc4nccnc4c3)ccn2)n(-c2ccc(C(C)(C)C#N)cc2)c1=O [Example A81, 2-Methyl-2-{4-[3-methyl-2-oxo-5-(4-pyrido[2,3-b]pyrazin-7-ylpyridin-2-yl)-2,3-dihydroimidazol-1-yl]phenyl}propionitrile] | 0.1 to 100 | > 10000 | – | 100 to 10000 | 100 to 10000
8 | CN1CCN(c2ccc(-n3c(-c4cc(-c5cnc(N)c(C(F)(F)F)c5)ccn4)cn(C)c3=O)cc2C#N)CC1 [Example A82, 5-[5-(6-Amino-5-trifluoromethyl-[3,4′]bipyridinyl-2′-yl)-3-methyl-2-oxo-2,3-dihydroimidazol-1-yl]-2-(4-methylpiperazin-1-yl)benzonitrile] | 0.1 to 100 | 100 to 10000 | – | 100 to 10000 | 100 to 10000
9 | CNCc1ccc(-c2ccnc(-c3cn(C)c(=O)n3-c3ccc(C(C)(C)C#N)cc3)c2)cn1 [Example A95, 2-Methyl-2-{4-[3-methyl-5-(6-methylaminomethyl-[3,4′]bipyridinyl-2′-yl)-2-oxo-2,3-dihydroimidazol-1-yl]phenyl}propionitrile] | 100 to 10000 | > 10000 | – | > 10000 | > 10000
10 | Cn1cc(-c2cc(-c3c[nH]c4ncccc34)ccn2)n(-c2ccc(C(C)(C)C#N)cc2)c1=O [Example A100, 2-Methyl-2-(4-{3-methyl-2-oxo-5-[4-(1H-pyrrolo[2,3-b]pyridin-3-yl)pyridin-2-yl]-2,3-dihydroimidazol-1-yl}phenyl)propionitrile] | 100 to 10000 | 100 to 10000 | – | 100 to 10000 | 100 to 10000
11 | CN1CCN(c2ccc(-n3c(-c4cc(-c5ccc6[nH]ccc6c5)ccn4)cn(C)c3=O)cc2C(F)(F)F)CC1 [Example A102, 4-[4-(1H-Indol-5-yl)pyridin-2-yl]-1-methyl-3-[4-(4-methylpiperazin-1-yl)-3-trifluoromethylphenyl]-1,3-dihydroimidazol-2-one] | 100 to 10000 | 100 to 10000 | – | 100 to 10000 | –
12 | CN1CCN(c2ccc(-n3c(-c4cc(-c5cnc(N)c(C(F)(F)F)c5)ccn4)cn(C)c3=O)cc2C(F)(F)F)CC1 [Example A103, 4-(6-Amino-5-trifluoromethyl-[3,4′]bipyridinyl-2′-yl)-1-methyl-3-[4-(4-methyl-piperazin-1-yl)-3-trifluoromethylphenyl]-1,3-dihydroimidazol-2-one] | 100 to 10000 | 100 to 10000 | – | 100 to 10000 | 100 to 10000
13 | Cc1cc2cc(-c3ccnc(-c4cn(C)c(=O)n4-c4cccc(Oc5ccccc5)c4)c3)cnc2[nH]1 [Example A104, 1-Methyl-4-[4-(2-methyl-1H-pyrrolo[2,3-b]pyridin-5-yl)pyridin-2-yl]-3-(3-phenoxy-phenyl)-1,3-dihydroimidazol-2-one] | 0.1 to 100 | 100 to 10000 | – | 100 to 10000 | –
14 | Cn1cc(-c2cc(-c3cnc4[nH]ccc4c3)ccn2)n(-c2ccc(N3CCN(Cc4cccnc4)CC3)c(C(F)(F)F)c2)c1=O [Example A106, 1-Methyl-3-[4-(4-pyridin-3-ylmethylpiperazin-1-yl)-3-trifluoromethylphenyl]-4-[4-(1H-pyrrolo[2,3-b]pyridin-5-yl)pyridin-2-yl]-1,3-dihydroimidazol-2-one] | 100 to 10000 | 0.1 to 100 | – | – | –
15 | Cn1cc(-c2cc(-c3cc(F)c(N)c(C(F)(F)F)c3)ccn2)n(-c2ccc(C(C)(C)C#N)cc2)c1=O [Example A107, 2-(4-{5-[4-(4-Amino-3-fluoro-5-trifluoromethylphenyl)pyridin-2-yl]-3-methyl-2-oxo-2,3-dihydroimidazol-1-yl}phenyl)-2-methylpropionitrile] | 0.1 to 100 | 100 to 10000 | – | – | –
16 | COc1ccc(Cn2c(-c3cc(-c4cnc(NC(C)=O)c(C(F)(F)F)c4)ccn3)cn(C)c2=O)cc1 [Example A111, N-{2′-[3-(4-Methoxybenzyl)-1-methyl-2-oxo-2,3-dihydro-1H-imidazol-4-yl]-5-trifluoromethyl-[3,4′]bipyridinyl-6-yl}acetamide] | > 10000 | > 10000 | – | > 10000 | > 10000
